{"source": "patent US20050075399A1", "about": "“Methods and kits for enhancing ability to learn in a puppy or kitten” (The Procter & Gamble Company, priority 2003, published 2005)", "type_in_all_cases": "in vivo", "key": {"purebred beagle puppies [1]": {"test_system": "purebred beagle puppies", "assay": "Three-door location training test (assigned door)", "conditions": "all puppies regardless of group (0.18% DHA or 0.02% DHA food composition, ad libitum)", "method": "(§1) A study is conducted to determine effect of compositions described herein upon the ability of puppies to learn in a training environment.\n(§2) Twelve purebred beagle puppies are randomized and assigned to either Group 1 or Group 2. Each of Groups 1 and 2 contains six of the puppies. Each of the puppies is about nine weeks of age. Their respective weights are appropriate for age and body size.\n(§3) Two treatment compositions are utilized for the study. These compositions are: 1) for Group 1, a nutritionally balanced food composition comprising an essential fatty acid component comprising 0.18% DHA, by weight of the composition; and 2) for Group 2, a nutritionally balanced food composition which is similar in all respects except that the essential fatty acid component comprises 0.02% DHA, by weight of the composition.\n(§4) Throughout the study, the puppies are fed their respective compositions ad libitum. Treats are utilized for training purposes; the treats which are used are PURINA® Puppy Canned Formula.\nThe study utilizes three doors of identical size and shape. Each puppy is randomly assigned to one of three doors along with a random symbol (circle or square) for location training. The objective of the study is to train the puppy to reach the “correct” door, i.e. the door bearing the shape which is assigned to the respective puppy. A box is marked with tape in front of each door. […]"}, "purebred beagle puppies [2]": {"test_system": "purebred beagle puppies", "assay": "Three-door multiple shape testing (symbol as the cue)", "conditions": "for puppies that passed the test on their initial testing: pass = at least 80% correct", "method": "as §1, §2, §3, §4\nFollowing location training, each puppy receives two days of shape training, wherein the study shapes are randomly placed on different doors simultaneously. The objective is to determine whether the puppy learns that the symbol is associated with the treat target, not the door location. Following this training, each puppy received two testing sessions to determine ability to identify the symbol as the cue. A puppy is determined to pass if at least 80% of the test is correct. Puppies that failed are given two additional days of training and are retested. A puppy is given a maximum of three attempts to pass the multiple shape testing.\nEach puppy is randomly assigned a shape of either a square or a circle. The “correct” door is the door bearing the shape which is assigned to the puppy; the location of the “correct” door is systematically modified throughout the study such that the puppy must learn to identify with the shape rather than the location of the door. The puppies are trained for several days in order to learn the process of choosing the “correct” door within a time period of two minutes. Training occurs with various learning procedures, including placing a trail of treats in front of the “correct” door.\nAfter several days of training, the learning procedures are eliminated and the puppy performs without intervention. The puppy is given two minutes to reach the “correct” door. If the puppy fails to reach the “correct” door within the two minute time period, the puppy receives an incorrect score for that attempt. If the puppy reaches the “correct” door within the two minute time period, the puppy receives a correct score for that attempt."}, "purebred beagle puppies [3]": {"test_system": "purebred beagle puppies", "assay": "Maze test of the ability of puppies to learn in a training environment (success criteria)", "conditions": "puppy and maternal animal", "method": "as §1\nTen purebred beagle puppies are randomized and assigned to Group 1 (n=3), Group 2 (n=3), or Group 3 (n=4). Each of the puppies is about nine weeks of age. Their respective weights are appropriate for age and body size.\nas §3, with “Three” for “Two”, “about 0.14%” for “0.18%”, “composition;” for “composition; and”, “comprises about 0.08% DHA, by weight of the composition; and 3) for Group 3, a nutritionally balanced food composition which is similar in all respects except that the essential fatty acid component comprises about” for “comprises”\n(§5) The respective maternal animal for each puppy in Group 1 receives, ad libitum, a nutritionally balanced food composition comprising an essential fatty acid component comprising about 0.14% DHA, by weight of the composition, during gestation, nursing, or weaning (or any combination thereof) of such puppy.\nas §5, with “2” for “1”, “0.08%” for “0.14%”\nas §5, with “3” for “1”, “0.02%” for “0.14%”\nThroughout the study, the puppies are fed their respective compositions twice daily. Treats are utilized for training purposes; the treats which are used are PURINA® Puppy Canned Formula.\nThe study utilizes a room having a maze constructed in general accordance with the maze illustrated in FIG. 2. Referring now to FIG. 2, Point A Crate is a starting area and contains a crate with a door that cannot be seen through. This crate door is easily opened by a study technician. The crate allows immediate entrance into the maze when the door is opened. The crate door is opened either upward or flat, or by some other means such that the maze path is not obstructed. Point B Maze Symbol contains one of two symbols (i.e., a circle and square) indicating to the trained puppy where the treat will be located. The symbol is attached at a height which is easily visualized by the puppy. Point C Treat Pan is the ending location where the treat pan will be located. Point C Treat Pan is the correct designation for a maze designated left. Point D Treat Pan is the ending location where another treat pan will be located. Point D Treat Pan is the correct designation for a maze designated right.\nPrior to training, each puppy is randomly assigned two symbol-direction combinations. The possible groupings are identified below as Groups A and B:\nTraining with assistance takes place for one week. Each puppy is trained in accordance to whether it is a Group A puppy or a Group B puppy. For Group A puppies, the puppy is trained numerous times to learn that if a treat is placed on the circle at Point B Maze Symbol, then another treat is located to the right at Point D Treat Pan. Likewise, for Group A puppies, the puppy is trained the same number of time to learn that if a treat is placed on the square at Point B Maze Symbol, then another treat is located to the left at Point C Treat Pan. Group B puppies will follow this same outline with the exception that sessions with a circle as the symbol will go to the left and a square as the symbol will go right. […]"}, "[4]": {"conditions": "Group 1 (n=6): food composition 0.18% DHA ad libitum"}, "[5]": {"conditions": "Group 2 (n=6): food composition 0.02% DHA ad libitum"}, "[6]": {"conditions": "Group 1 (n=3): food composition about 0.14% DHA"}, "[7]": {"conditions": "Group 2 (n=3): food composition about 0.08% DHA"}, "[8]": {"conditions": "Group 3 (n=4): food composition about 0.02% DHA"}}, "data": [{"compound": "CC/C=C\\C/C=C\\C/C=C\\C/C=C\\C/C=C\\C/C=C\\CCC(=O)O", "note": "[DHA, docosahexaenoic acid]", "values": [{"measurement": "correct scores in locating the assigned location (door)", "setting": "purebred beagle puppies [1]", "result": "greater than 90%"}, {"measurement": "puppies that passed following additional training days", "setting": "purebred beagle puppies [2]; [4]", "result": 75, "unit": "%"}, {"measurement": "puppies that passed the test on their initial testing", "setting": "purebred beagle puppies [2]; [4]", "result": 50, "unit": "%"}, {"measurement": "puppies that passed following additional training days", "setting": "purebred beagle puppies [2]; [5]", "result": 45, "unit": "%"}, {"measurement": "puppies that passed the test on their initial testing", "setting": "purebred beagle puppies [2]; [5]", "result": 16, "unit": "%"}, {"measurement": "puppies that achieved a single success criteria", "setting": "purebred beagle puppies [3]; [6]", "result": 100, "unit": "%"}, {"measurement": "puppies that achieved two success criteria", "setting": "purebred beagle puppies [3]; [6]", "result": 66, "unit": "%"}, {"measurement": "puppies that achieved a single success criteria", "setting": "purebred beagle puppies [3]; [7]", "result": 66, "unit": "%"}, {"measurement": "puppies that achieved two success criteria", "setting": "purebred beagle puppies [3]; [7]", "result": 0, "unit": "%"}, {"measurement": "puppies that achieved a single success criteria", "setting": "purebred beagle puppies [3]; [8]", "result": 50, "unit": "%"}, {"measurement": "puppies that achieved two success criteria", "setting": "purebred beagle puppies [3]; [8]", "result": 0, "unit": "%"}]}]}
